In US20030139609A1, “Aziridinyl quinone antitumor agents based on indoles and cyclopent[b]indoles” (priority 2001, published 2003):
Several values for one entry are separate records, joined by “and”; a condition that tells them apart may be missing. Equal values may be shown once. Read-outs that look alike come from different tables or passages of the source.

Key:
600 bp calf thymus DNA = test: DNA reductive alkylation by catalytically reduced aziridinyl quinones; type: biochemical; conditions: for DNA alkylation percentage: catalytic reduction, anaerobic, pH 7.4 tris buffer, 30° C., 24 h, absorbance at 550 nm
Procedure: DNA Alkylation Screening of Series 1-9. The extent of DNA reductive alkylation was determined by catalytic reduction of the aziridinyl quinones in the presence of 600 bp calf thymus DNA. Oxidative workup afforded DNA colored blue as a result of the aminoquinone chromophore. […] The anaerobic conditions employed for DNA reductive alkylation assays is not meant to mimic the environment of tumor cells. These conditions do permit an accurate assessment of the structural requirements for DNA alkylation by the hydroquinone species. To be sure, agents incapable of akylating DNA under these ideal conditions will not do so in the typical cellular environment.
Alkylation of DNA by Reduced Indoloquinones. To a mixture of 1-2 mg of sonicated (600 bp) calf thymus DNA in 2.0 mL of 0.05 M of pH 7.4 tris buffer and 2 mg of Pd on carbon was added a five-to-one base pair equivalent amount of the indoloquinone dissolved in 0.5 mL of dimethylsulfoxide. The resulting solution was degassed under argon for 30 min., after which the mixture was purged with H2 for 10 min. The solution was then purged with argon for 10 min. and placed in a 30° C. bath for 24 h. The reaction was opened to the air and the catalyst was removed with a Millex-PF […] syringe filter. The filtrate was adjusted to 0.3 M acetate with a 3 M stock solution of pH 5.1 acetate and then diluted with two volumes of ethanol. The mixture was chilled at −20° C. for 12 h and the DNA pellet collected by centrifuging at 12,000 g for 20 min. The pellet was redissolved in water and then precipitated and centrifuged again. The resulting blue or red pellet was suspended in ethanol, centrifuged, and dried. The dried pellet was weighed and dissolved in 1 mL of double distilled water resulting in a clear colored solution with […]max˜550 nm, □˜750 M^−1 cm^−1. This is the chromophore of the aminoquinone resulting from nucleophile-mediated opening of the aziridine ring. Model 2′-chloroethyl aminoquinones for extinction coefficient determination were prepared by treatment of the indoloquinone with HCl. {Skibo, E. B. and Xing, C., Chemistry and DNA Alkylation Reactions of Aziridinyl Quinones: Development of an Efficient Alkylating Agent of the Phosphate Backbone, Biochemistry, 1998, 37, 15199-15213}.

[1] = test system: NCI-H460 non-small-lung cancer cell line; test: NCI In Vitro Cell Line Screening, NSC H460 cell line; type: cell-based; conditions: for Log TGI NSC H460: concentration for total growth inhibition; for GI50 / CC50: Homo sapiens
Text: Cytotoxic and Cytostatic Screening of Series 1-9.

[2] = test system: National Cancer Institute 60-cell line; test: NCI 60-cell line in vitro screen (average cytotoxicity and cancer specificity); conditions: for Average Log LC50 60-Cell Line: mean over 60 cell lines, ± value measures cancer specificity
Procedure: Cytotoxic and Cytostatic Screening of Series 1-9. […] The cytostatic parameters include GI50 and TGI, which are the concentrations of drug required for 50% growth inhibition and total growth inhibition, respectively. The cytotoxic parameter is the LC50, which is the concentration required for 50% cell kill.
4. […] Cancer specificity is measured from the ± value under the “Average Log LC50 60-Cell Line” heading of Table 5. A ± value greater than 2 indicates a greater than 100-fold higher/lower cytotoxicity in some histological cancer types compared to the mean cytotoxicity.
The DT-diaphorase levels in the National Cancer Institute 60-cell line in vitro screen have been determined and correlated with the cytotoxicity of antitumor agents activated by 2-electron reduction. {Fitzsimmons, S. A., Workman, P., Grever, M., Paull, K., Camalier, R., and Lewis, A. D., Reductase Enzyme Expression Across the National Cancer Institute Tumor Cell Line Panel: Correlation with Sensitivity To Mitomycin C and EO9, J. Natl. Cancer Inst., 1996, 88, 259-69}. Sensitive cancers usually include NSC lung and colon cancers (and to a lesser extent CNS, melanoma, and renal cancers) by virtue of their elevated DT-diaphorase levels.

B16 melanoma = test: animal or person; type: in vivo; conditions: for in vivo toxicity (in words) / in vivo antitumor activity (in words): 2, 3 or 5 mg/kg/day; for response vs control in vivo at 2 mg/kg / response vs control in vivo at 3 mg/kg / response vs control in vivo at 5 mg/kg: Mus musculus, B16, 600 h, read-out: In vivo T/C (Treated/Control)
Text: Shown in Tables 6 and 7 are B16 melanoma syngraft assays {Griswold, D. P., Consideration of the Subcutaneously Implanted B16 Melanoma as a Screening Model for Potential Anticancer Agents, Cancer Chemother Reports, 1972, 3, 315-324} of some members of Series 1-9, as well as related compounds previously reported from this laboratory. {Xing, C. G., Wu, P., Skibo, E. B., and Dorr, R. T., Design of cancer-specific antitumor agents based on aziridlinylcyclopent[b]indoloquinones, J. Med. Chem., 2000, 43, 457-466}. Each agent was evaluated at three doses in C57/bl mice: 2, 3 or 5 mg/kg/day, on days 1, 5, and 9 after subcutaneous tumor implantation of 10^5 cells in the front flank on day 0. “Toxic” means that there was early lethality, or ≧50% lethality prior to any deaths in the control group. The treated over control values (T/C) were measured at day 25 of the study. A T/C value <40% is considered active.
In vivo Evaluation. The B-16 melanoma in C57/bl mice syngraft model was employed to determine in vivo activity. {Griswold, D. P., Consideration of the Subcutaneously Implanted B16 Melanoma as a Screening Model for Potential Anticancer Agents, Cancer Chemother Reports, 1972, 3, 315-324}. Each agent was evaluated at three doses: 2, 3 or 5 mg/kg/day, on days 1, 5, and 9 after subcutaneous tumor implantation of 10^5 cells in the front flank on day 0. “Toxic” means that there was early lethality, or ≧50% lethality prior to any deaths in the control group. The treated over control values (T/C) were measured at day 25 of the study. A T/C value<40% is considered active. […] The control was obtained with drug-free animals.

[3] = NCI-H460, concentration for 50% growth inhibition, read-out: Log GI50 NSC H460 (converted)
[4] = NCI-H460, read-out: Log LC50 NSC H460, concentration for 50% cell kill (converted)
[5] = 5 mg/Kg/Day on days 1, 5, 9, T/C at day 25, <40% active
[6] = 2 mg/Kg/Day on days 1, 5, 9, T/C at day 25, <40% active
[7] = 3 mg/Kg/Day on days 1, 5, 9, T/C at day 25, <40% active
[8] = NCI-H460, read-out: Log GI50 NSC H460 (converted)

Compound: 6-Aziridinyl-3-(hydroxymethyl)-2-methylcarboxylindol-4,7-dione [Compound 9b]
- % of DNA bases reductively activated (600 bp calf thymus DNA): 2%
- DNA alkylation percentage (600 bp calf thymus DNA): 2.2%
- Log LC50 NSC H460 ([1]; concentration for 50% cell kill): −5.21 and −4.95
- Log GI50 NSC H460 ([1]; concentration for 50% growth inhibition): −5.90 and −5.80
- Log TGI NSC H460 [1]: −5.55 and −5.39
- Average Log LC50 60-Cell Line [2]: −5.20 ± 1.04 and −5.32 ± 1.14
- cytostatic/cytotoxic activity versus histological cancer type (in words) ([2]; text b52, FIG. 4): significant cytotoxic and cytostatic properties

Compound: O=C1C=C(N2CC2)C(=O)c2c1[nH]c1c2CCC1O (stereo not shown) [Compound 1a, 7-Aziridinyl-3-hydroxy-1,2,3,4-tetrahydrocyclopent[b]indole-5,8-dione]
- DNA alkylation percentage (600 bp calf thymus DNA): 22.5%
- GI50 [1, 3]: 0.01 µM
- CC50 [1, 4]: 0.295 µM
- Log TGI NSC H460 [1]: −6.99
- Average Log LC50 60-Cell Line [2]: −5.66 ± 1.52

Compound: CC1=C(N2CC2)C(=O)c2c([nH]c3c2CCC3O)C1=O (stereo not shown) [Compound 2a, 7-Aziridinyl-3-hydroxy-6-methyl-1,2,3,4-tetrahydrocyclopent[b]indole-5,8-dione]
- DNA alkylation percentage (600 bp calf thymus DNA): 11.2%
- GI50 [1, 3]: 0.01 µM

Compound: CC(=O)OC1CCc2c1[nH]c1c2C(=O)C=C(N2CC2)C1=O (stereo not shown) [Compound 3b, 3-Acetoxy-6-aziridinyl-1,2,3,4-tetrahydrocyclopent[b]indole-5,8-dione]
- DNA alkylation percentage (600 bp calf thymus DNA): 29%
- In vivo T/C (Treated/Control) (B16 melanoma; [5]): Toxic (“Toxic” means ≧ 50% lethality before any control growth deaths)

Compound: CC(=O)OC1CCc2c3c(n(C(C)=O)c21)C(=O)C(N1CC1)=CC3=O (stereo not shown) [Compound 3c, 6-Aziridinyl-3-acetoxy-4-acetyl-1,2,3,4-tetrahydrocyclopent[b]indole-5,8-dione]
- in vivo toxicity (in words) (B16 melanoma): toxic
- response vs control in vivo at 2 mg/kg (B16 melanoma): > 50%
- response vs control in vivo at 3 mg/kg (B16 melanoma): > 50%
- response vs control in vivo at 5 mg/kg (B16 melanoma): > 50%

Compound: CC1=C(N2CC2)C(=O)c2[nH]c3c(c2C1=O)CCC3O (stereo not shown) [Compound 4a]
- DNA alkylation percentage (600 bp calf thymus DNA): 10%
- GI50 [1, 3]: 0.01 µM
- CC50 [1, 4]: 100 µM
- Log TGI NSC H460 [1]: −6.97
- in vivo toxicity (in words) (B16 melanoma): without any toxicity
- response vs control in vivo at 2 mg/kg (B16 melanoma; [6]): 75%
- response vs control in vivo at 3 mg/kg (B16 melanoma; [7]): 45%

Compound: O=C1C=C(N2CC2)C(=O)c2c1[nH]c(CO)c2CO [Compound 6a, 5-Aziridinyl-2,3-di(hydroxymethyl)indole-4,7-dione]
- DNA alkylation percentage (600 bp calf thymus DNA): 16.7%
- In vivo T/C (Treated/Control) (B16 melanoma; [6]): Toxic (“Toxic” means ≧ 50% lethality before any control growth deaths)
- In vivo T/C (Treated/Control) (B16 melanoma; [7]): Toxic (“Toxic” means ≧ 50% lethality before any control growth deaths)
- In vivo T/C (Treated/Control) (B16 melanoma; [5]): Toxic (“Toxic” means ≧ 50% lethality before any control growth deaths)

Compound: CCOC(=O)c1[nH]c2c(c1CO)C(=O)C(N1CC1)=CC2=O [Compound 6c, 5-Aziridinyl-2-ethylcarboxyl-3-(hydroxymethyl)indole-4,7-dione]
- GI50 [1, 8]: 0.01 µM
- CC50 [1, 4]: 0.631 µM
- CC50 ([1]; NCI-H460, read-out: −log LC50 value, H460 cell line (converted)): 0.631 µM
- Log TGI NSC H460 [1]: −7 and −6.95
- Average Log LC50 60-Cell Line [2]: −5.79 ± 1.98

Compound: CC(=O)OCc1[nH]c2c(c1COC(C)=O)C(=O)C(N1CC1)=CC2=O [Compound 6e, 5-Aziridinyl-2,3-di(acetoxymethyl)indole-4,7-dione]
- DNA alkylation (in words) (600 bp calf thymus DNA): high DNA alkylation percentages
- DNA alkylation percentage (600 bp calf thymus DNA): 43%

Compound: CCOC(=O)c1[nH]c2c(c1CO)C(=O)C(N1CC1)=C(C)C2=O [Compound 7b, 5-Aziridinyl-2-ethylcarboxyl-3-hydroxymethyl-6-methylindole-4,7-dione]
- GI50 [1, 8]: 0.01 µM
- Log TGI NSC H460 [1]: −7.99 and −7.96
- Average Log LC50 60-Cell Line [2]: −5.69 ± 2.31 and −5.75 ± 2.25

Compound: CC1=C(N2CC2)C(=O)c2[nH]c(CO)c(CO)c2C1=O [Compound 8a, 6-Aziridinyl-2,3-di(hydroxymethyl)-5-methylindole-4,7-dione]
- DNA alkylation percentage (600 bp calf thymus DNA): 4%
- In vivo T/C (Treated/Control) (B16 melanoma; [7]): Toxic (“Toxic” means ≧ 50% lethality before any control growth deaths)
- In vivo T/C (Treated/Control) (B16 melanoma; [5]): Toxic (“Toxic” means ≧ 50% lethality before any control growth deaths)
- response vs control in vivo at 2 mg/kg (B16 melanoma; [6]): 54%

Compound: COC1CCc2c1[nH]c1c2C(=O)C(C)=C(N2CC2)C1=O (stereo not shown) [reference compound]
- in vivo toxicity (in words) (B16 melanoma): toxicity only seen at the highest dose

Compound: CC1=C(N2CC2)C(=O)c2[nH]c(C)c(C)c2C1=O [reference compound]
- response vs control in vivo at 2 mg/kg (B16 melanoma): 22%
- response vs control in vivo at 3 mg/kg (B16 melanoma): > 50%
- response vs control in vivo at 5 mg/kg (B16 melanoma): > 50%

Compound: CC1=C(N2CC2)C(=O)c2c([nH]c(C)c2C)C1=O [reference compound]
- In vivo T/C (Treated/Control) (B16 melanoma; [5]): Toxic (“Toxic” means ≧ 50% lethality before any control growth deaths)
- response vs control in vivo at 2 mg/kg (B16 melanoma; [6]): 10%
- response vs control in vivo at 3 mg/kg (B16 melanoma; [7]): 60%

Compound: CC1=C(N2CC2)C(=O)c2[nH]c(CO)c(C)c2C1=O [reference compound]
- in vivo antitumor activity (in words) (B16 melanoma): antitumor activity is retained
- in vivo toxicity (in words) (B16 melanoma): without much toxicity
- response vs control in vivo at 2 mg/kg (B16 melanoma; [6]): 61%
- response vs control in vivo at 3 mg/kg (B16 melanoma; [7]): 37%
- response vs control in vivo at 5 mg/kg (B16 melanoma; [5]): 34%

Compound: CC(=O)OCc1[nH]c2c(c1C)C(=O)C(C)=C(N1CC1)C2=O [reference compound]
- in vivo antitumor activity (in words) (B16 melanoma): inactive at all doses

Compound: CC(=O)OCc1[nH]c2c(c1C)C(=O)C(N1CC1)=C(C)C2=O [reference compound]
- In vivo T/C (Treated/Control) (B16 melanoma; [7]): Toxic (“Toxic” means ≧ 50% lethality before any control growth deaths)
- In vivo T/C (Treated/Control) (B16 melanoma; [5]): Toxic (“Toxic” means ≧ 50% lethality before any control growth deaths)
- response vs control in vivo at 2 mg/kg (B16 melanoma; [6]): 47%
